EP4818168A1, “FUSED RING COMPOUND, PHARMACEUTICAL COMPOSITION THEREOF AND USE THEREOF” (priority 2023, dated 2025)
Read-outs that look alike come from different tables or passages of the source.

Key:
AURKA = target: T1, AURKA (Homo sapiens, UniProt O14965); format: cell-based
T1 construct: endogenous in cells; host or cells: Jurkat cells
T1 sequence (O14965 1-403): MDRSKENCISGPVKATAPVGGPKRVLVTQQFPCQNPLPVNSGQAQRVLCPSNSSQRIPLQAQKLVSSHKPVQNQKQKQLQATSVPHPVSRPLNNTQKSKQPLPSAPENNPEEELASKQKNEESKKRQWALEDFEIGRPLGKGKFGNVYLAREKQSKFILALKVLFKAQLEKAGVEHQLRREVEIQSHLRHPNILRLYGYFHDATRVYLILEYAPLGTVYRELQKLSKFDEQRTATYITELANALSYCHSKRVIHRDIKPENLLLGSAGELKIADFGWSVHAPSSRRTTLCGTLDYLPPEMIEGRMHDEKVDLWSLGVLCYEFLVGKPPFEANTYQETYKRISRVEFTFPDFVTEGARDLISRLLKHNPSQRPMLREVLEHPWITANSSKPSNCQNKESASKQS
Procedure, shortened: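 AURKA degradation read by western blot: band signal, fluorescent or chemiluminescent, curve-fitted to derive DC50. Cells were Jurkat, plated at 1×10^6 cells/500 µL with compound, then lysed and blotted onto nitrocellulose, primary antibody overnight at 4°C.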

H82 cells = test: cells; format: cell-based; details: Homo sapiens
Procedure, shortened: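 After 6 days' compound treatment at 37 °C (final DMSO 0.1%, RPMI1640/10% FBS), viable H82 cells were quantified by ATP-dependent CellTiter-Glo luminescence. Remaining activity was calculated against DMSO and medium wells, and a sigmoidal fit gave IC50.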

[1] = 100 nM compound, Jurkat cells, 24 h, Table 2
[2] = 1 µM compound, Jurkat cells, 24 h, Table 2
[3] = NCI-H82, H82 cells, 4000 cells/well, CellTiter-Glo, read-out: IC50 in H82 Cells
[4] = NCI-H82, read-out: IC50 in H82 Cells

Row | Compound | Percentage of AURKA Degradation Induced by 100 nM Compound in Jurkat Cells (AURKA; [1]) | Percentage of AURKA Degradation Induced by 1 µM Compound in Jurkat Cells (AURKA; [2]) | IC50 (H82 cells; [3]) | Percentage of AURKA Degradation Induced by 100 nM Compound in Jurkat Cells (AURKA) | Percentage of AURKA Degradation Induced by 1 µM Compound in Jurkat Cells (AURKA) | IC50 (H82 cells; [4])
1 | COc1ccccc1C1=NCc2cnc(Nc3ccc(C(=O)NC4CC5(CCN(c6ccc(N7CCC(=O)NC7=O)cn6)CC5)C4)cc3)nc2-c2ccncc21 [Compound A137] | +++ (Degradation > 70%) | +++ (Degradation > 70%) | < 1 µM |  |  | 
2 | CP(C)(=O)c1ccc2c(c1)C(c1c(F)cccc1F)=NCc1cnc(Nc3ccc(N4CCN(C5CCN(c6ccc(N7CCC(=O)NC7=O)cn6)CC5)CC4=O)cc3)nc1-2 [Compound A268] | +++ (Degradation > 70%) | +++ (Degradation > 70%) | 1 to 10 µM |  |  | 
3 | O=C1CCN(c2cccc(N3CCC(C#Cc4cccc(Nc5ncc6c(n5)-c5ccc(Cl)cc5C(c5c(F)cccc5F)=NC6)c4)CC3)c2)C(=O)N1 [Compound A127] |  |  |  | +++ (key: +: Degradation ≤ 30%; ++: 30% < Degradation ≤ 70%; +++: Degradation > 70%) | +++ (key: +: Degradation ≤ 30%; ++: 30% < Degradation ≤ 70%; +++: Degradation > 70%) | < 1 µM
4 | O=C1CCN(c2ccc(N3CCN(CC4CN(c5ccc(Nc6ncc7c(n6)-c6ccc(Cl)cc6C(c6c(F)cccc6F)=NC7)cc5)C4)CC3)nc2)C(=O)N1 [Compound A199] | +++ (Degradation > 70%) | +++ (Degradation > 70%) | < 1 µM |  |  | 
5 | COc1cccc(F)c1C1=NCc2cnc(Nc3ccc(N4CCN(C5COC6(CCN(c7ccc(N8CCC(=O)NC8=O)cn7)CC6)C5)CC4)cc3)nc2-c2ccc(Cl)cc21 (stereo not drawn) [Compound A363] | +++ (Degradation > 70%) | +++ (Degradation > 70%) | < 1 µM |  |  | 
6 | O=C1CCN(c2ccc(N3CCC4(CC3)CC(NC(=O)C35CC(Nc6ncc7c(n6)-c6ccc(Cl)cc6C(c6c(F)cccc6F)=NC7)(C3)C5)C4)nc2)C(=O)N1 [Compound A195] | +++ (Degradation > 70%) | +++ (Degradation > 70%) | < 1 µM |  |  | 
7 | O=C1CCN(c2cccc(N3CCC(CN4CCOc5ccc(Nc6ncc7c(n6)-c6ccc(Cl)cc6C(c6c(F)cccc6F)=NC7)cc5C4)CC3)c2)C(=O)N1 [Compound A240] | +++ (Degradation > 70%) | +++ (Degradation > 70%) | < 1 µM |  |  | 
8 | O=C1CCN(c2cccc(N3CCN(Cc4cccc(Nc5ncc6c(n5)-c5ccc(Cl)cc5C(c5c(F)cccc5F)=NC6)c4)CC3)c2)C(=O)N1 [Compound A146] | ++ (30% < Degradation ≤ 70%) | + (Degradation ≤ 30%) | < 1 µM |  |  | 
9 | O=C1CCN(c2ccc(N3CCOC4(CC(N5CCN(C67CC(Nc8ncc9c(n8)-c8ccc(Cl)cc8C(c8c(F)cccc8F)=NC9)(C6)C7)C(=O)C5)C4)C3)nc2)C(=O)N1 (single isomer, unassigned) [Compound A348] | +++ (Degradation > 70%) | ++ (30% < Degradation ≤ 70%) |  |  |  | < 1 µM
10 | Cc1c(N2CCC(CN3CCc4ccc(Nc5ncc6c(n5)-c5ccc(Cl)cc5C(c5c(F)cccc5F)=NC6)cc4C3)CC2)cccc1N1CCC(=O)NC1=O [Compound A178] | +++ (Degradation > 70%) | +++ (Degradation > 70%) | < 1 µM |  |  | 
11 | O=C1CCN(c2ccc(N3CCC(N4CCN(c5ccc(Nc6ncc7c(n6)-c6ccc(Cl)cc6C(c6c(F)cccc6F)=NC7)cc5)C5(COC5)C4)CC3)nc2)C(=O)N1 [Compound A233] | ++ (30% < Degradation ≤ 70%) | +++ (Degradation > 70%) | < 1 µM |  |  | 
12 | O=C1CCN(c2ccc(N3CC(CN4CCN(C56CC(Nc7ncc8c(n7)-c7ccc(Cl)cc7C(c7c(F)cccc7F)=NC8)(C5)C6)CC4)C3)nc2)C(=O)N1 [Compound A219] | +++ (Degradation > 70%) | +++ (Degradation > 70%) | < 1 µM |  |  | 
13 | O=C1CCN(c2ccc(N3CCC4(CC3)CC(NC(=O)c3ccc(Nc5ncc6c(n5)-c5ccc(C7CC7)cc5C(c5c(F)cccc5F)=NC6)cc3)C4)nc2)C(=O)N1 [Compound A115] | +++ (Degradation > 70%) | +++ (Degradation > 70%) | < 1 µM |  |  | 
14 | O=C1CCN(c2ccc(N3CC(N4CCN(Cc5ccc(Nc6ncc7c(n6)-c6ccc(Cl)cc6C(c6c(F)cccc6F)=NC7)cc5)CC4)C3)nc2)C(=O)N1 [Compound A101] | +++ (Degradation > 70%) | +++ (Degradation > 70%) | < 1 µM |  |  | 
15 | O=C1CCN(c2ccc(N3CCC4(CC3)CN(C3CN(c5ccc(Nc6ncc7c(n6)-c6ccc(Cl)cc6C(c6c(F)cccc6F)=NC7)cc5)C3)CCO4)nc2)C(=O)N1 [Compound A352] | +++ (Degradation > 70%) | +++ (Degradation > 70%) |  |  |  | < 1 µM
16 | O=C1CCN(c2ccc(N3CCN(CCC(=O)Nc4ccc(Nc5ncc6c(n5)-c5ccc(Cl)cc5C(c5c(F)cccc5F)=NC6)cc4)CC3)cc2)C(=O)N1 [Compound A104] | +++ (Degradation > 70%) | +++ (Degradation > 70%) | < 1 µM |  |  | 
17 | O=C1CCN(c2ccc(N3CC(C(=O)N4CCN(c5ccc(Nc6ncc7c(n6)-c6ccc(Cl)cc6C(c6nccs6)=NC7)cc5)CC4)C3)nc2)C(=O)N1 [Compound A292] | +++ (Degradation > 70%) | +++ (Degradation > 70%) | < 1 µM |  |  | 
18 | Cn1c(CN2CCN(c3ncc(N4CCC(=O)NC4=O)s3)CC2)cnc1-c1ccc(Nc2ncc3c(n2)-c2ccc(Cl)cc2C(c2c(F)cccc2F)=NC3)cc1 [Compound A149] | +++ (Degradation > 70%) | +++ (Degradation > 70%) | < 1 µM |  |  | 
19 | O=C1CCN(c2cccc(N3CCN(CCC#Cc4cccc(Nc5ncc6c(n5)-c5ccc(Cl)cc5C(c5c(F)cccc5F)=NC6)c4)CC3)c2)C(=O)N1 [Compound A100] | ++ (30% < Degradation ≤ 70%) | ++ (30% < Degradation ≤ 70%) | < 1 µM |  |  | 
20 | O=C1CCN(c2ccc(N3CCC4(CC3)CC(NC(=O)c3ccc(Nc5ncc6c(n5)-c5ccc(Cl)cc5C(c5c(F)cccc5F)=NC6)cc3)C4)cc2F)C(=O)N1 [Compound A96] | ++ (30% < Degradation ≤ 70%) | +++ (Degradation > 70%) | < 1 µM |  |  | 
21 | O=C1CCN(c2ccc(C3CCN(CC4CN(c5ccc(Nc6ncc7c(n6)-c6ccc(Cl)cc6C(c6c(F)cccc6F)=NC7)cc5)C4)CC3)nc2)C(=O)N1 [Compound A249] | +++ (Degradation > 70%) | +++ (Degradation > 70%) | < 1 µM |  |  | 
22 | N#Cc1ccc2c(c1)C(c1nccs1)=NCc1cnc(Nc3ccc(N4CCN(C5CCN(c6ccc(N7CCC(=O)NC7=O)cn6)CC5)CC4=O)cc3)nc1-2 [Compound A322] | +++ (Degradation > 70%) | +++ (Degradation > 70%) | < 1 µM |  |  | 
23 | N#Cc1ccc2c(c1)C(c1c(F)cccc1F)=NCc1cnc(Nc3ccc(N4CCN(C5CCN(c6ccc(N7CCC(=O)NC7=O)cn6)CC5)CC4=O)cc3)nc1-2 [Compound A305] | +++ (Degradation > 70%) | +++ (Degradation > 70%) | < 1 µM |  |  | 
